Reference: patent publication US11833162B2, “Macrocyclic derivatives, process for preparing same and pharmaceutical compositions containing same” (LES LABORATOIRES SERVIER, priority 2017, dated 2023)

Experiments:
Bcl-2 protein = Bcl-2 protein (histag-Bcl-2, UniProtKB P10415) (Homo sapiens, UniProt P10415); test: Inhibition of Bcl-2 by the fluorescence polarisation technique; type: binding; conditions: for IC50: fluorescence polarisation, 2 hours incubation, read-out: IC50 (μM) Bcl-2 FP
Description: The fluorescence polarisation tests were carried out on microplates (384 wells). The Bcl-2 protein, labelled (histag-Bcl-2 such that Bcl-2 corresponds to the UniProtKB® primary accession number: P10415), at a final concentration of 5×10^−9M, is mixed with a fluorescent peptide (Fluorescein-REIGAQLRRMADDLNAQY), at a final concentration of 1.00×10^−9M in a buffer solution (Hepes 10 mM, NaCl 150 mM, Tween20 0.05%, pH 7.4), in the presence or absence of increasing concentrations of test compounds. After incubation for 2 hours, the fluorescence polarisation is measured.

[1] = system: RS4; 11 leukaemia tumour line; test: In vitro cytotoxicity, Microculture Tetrazolium Assay (MTT); type: cell-based; conditions: Homo sapiens, RS4-11, 48 h, 11 cells, 48 hours exposure
Description: The cytotoxicity studies were carried out on the RS4; 11 leukaemia tumour line.
The cells are distributed onto microplates and exposed to the test compounds for 48 hours.
The cell viability is then quantified by a colorimetric assay, the Microculture Tetrazolium Assay (Cancer Res., 1987, 47, 939-942).

Sequence of Bcl-2 protein (P10415 whole entry): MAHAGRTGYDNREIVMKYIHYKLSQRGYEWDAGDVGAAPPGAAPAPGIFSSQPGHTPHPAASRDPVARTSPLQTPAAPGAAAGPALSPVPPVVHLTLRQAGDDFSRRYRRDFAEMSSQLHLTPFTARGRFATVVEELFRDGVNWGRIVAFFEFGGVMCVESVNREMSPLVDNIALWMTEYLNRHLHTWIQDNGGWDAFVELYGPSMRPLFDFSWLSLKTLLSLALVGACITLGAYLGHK

SMILES | IC50 (Bcl-2 protein) [µM] | IC50 [1] [nM] | Bcl-2 FP, % at given concentration (Bcl-2 protein; @10 μM) [% @10 μM] | Bcl-2 FP, % at given concentration (Bcl-2 protein; @1.1 μM) [% @1.1 μM]
Cc1c2cc(n1C)-c1cc(Cl)ccc1C(=O)N1CCc3c(cccc3OCCCn3c(C#N)cc(c3C)N(c3ccc(O)cc3)C2=O)C1 [Example 8, 6-Chloro-14-(4-hydroxyphenyl)-10,11,32-trimethyl-2,13-dioxo-22-oxa-1,10,14,18-tetraazahexacyclo[25.3.1.1˜9,12˜.1˜15,18˜.0˜3,8˜.0˜23,28˜]tritriaconta-3,5,7,9(33),11,15(32),16,23,25,27-decaene-17-carbonitrile] | 0.00615 | 49.3 | – | –
Cc1c2cc(n1C)-c1cc(Cl)ccc1C(=O)N1Cc3cccc(c3C1)OCCOCCOc1ncc(cn1)N(c1ccc(O)cc1)C2=O [Example 36, 10-Chloro-2-(4-hydroxyphenyl)-5,6-dimethyl-23,26,29-trioxa-2,6,15,31,34-pentaazahexacyclo[28.2.2.1˜4,7˜.1˜15,18˜.0˜8,13˜.0˜17,22˜]hexatriaconta-1(32),4,7(36),8,10,12,17,19,21,30,33-undecaene-3,14-dione] | – | > 600 | 41.5 | –
Cc1c2cc(n1C)-c1cc(Cl)ccc1C(=O)N1Cc3cccc(c3CC1CN1CCOCC1)OCCCc1c(cnn1C)N(c1ccc(O)cc1)C2=O (stereo not drawn) [Example 17, 11-Chloro-4-(4-hydroxyphenyl)-1,7,8-trimethyl-16-(morpholin-4-ylmethyl)-4,16,17,23,24,25-hexahydro-1H,14H-15,18-methano-6,9-(metheno)dibenzo-[b,h]pyrazolo[4,3-p][1,6,11,15]oxatriazacycloicosine-5,14(8H)-dione] | 0.0123 | 62.8 | – | –
Cc1c2cc(n1C)-c1cc(Cl)ccc1C(=O)N1CCc3c(cccc3OCCn3c(C)ncc(c3=O)N(c3ccc(O)cc3)C2=O)C1 [Example 31, 6-Chloro-14-(4-hydroxyphenyl)-10,11,18-trimethyl-22-oxa-1,10,14,17,19-pentaazahexacyclo[25.3.1.1˜9,12˜.1˜15,19˜.0˜3,8˜.0˜23,28˜]tritriaconta-3,5,7,9(33),11,15,17,23,25,27-decaene-2,13,32-trione] | – | 1330 | – | 74.55
Cc1c2cc(n1C)-c1cc(Cl)ccc1C(=O)N1CCc3c(cccc3OCCc3c(cc(C#N)n3C)N(c3ccc(O)cc3)C2=O)C1 [Example 19, 11-Chloro-4-(4-hydroxyphenyl)-1,7,8-trimethyl-5,14-dioxo-1,4,5,8,16,17,23,24-octahydro-14H-15,18-methano-6,9-(metheno)dibenzo[l,r]pyrrolo-[2,3-d][1,6,10,15]oxatriazacyclononadecine-2-carbonitrile] | 0.0055 | 10.3 | – | –
Cc1c2cc(n1C)-c1cc(Cl)ccc1CN1CCc3c(cccc3OCCCc3c(cnn3C)N(c3ccc(O)cc3)C2=O)C1 [Example 11, 11-Chloro-4-(4-hydroxyphenyl)-1,7,8-trimethyl-4,16,17,23,24,25-hexahydro-1H,14H-15,18-methano-6,9-(metheno)dibenzo[b,h]pyrazolo[4,3-p]-[1,6,11,15]oxatriazacycloicosin-5(8H)-one] | 0.157 | 448 | – | –
Cc1c2cc(n1C)-c1cc(Cl)ccc1C(=O)N1CCc3c(cccc3OCCCCOc3cccc(c3)N(c3ccc(O)cc3)C2=O)C1 [Example 3, 6-Chloro-14-(4-hydroxyphenyl)-10,11-dimethyl-20,25-dioxa-1,10,14-triazahexacyclo[28.3.1.1˜9,12˜.1˜15,19˜.0˜3,8˜.0˜26,31˜]hexatriaconta-3,5,7,9(36),11,15(35),16,18,26,28,30-undecaene-L 3-dione] | 0.0655 | 749 | – | –
Cc1c(N2C(=O)c3cc(n(C)c3C)-c3ccccc3C(=O)N3CCC(CCOc4cc(O)ccc42)CC3)cc(C#N)n1C [Example 28, 4-[3-Hydroxy-18,19-dimethyl-12,21-dioxo-7,8,9,10,18,21-hexahydro-6H,12H,22H-8,11-ethano-20,17-(metheno)dibenzo[b,j][1,4,8,13]oxatriazacycloocta-decin-22-yl]-1,5-dimethyl-1H-pyrrole-2-carbonitrile] | 0.0288 | 401 | – | –
Cc1c2cc(n1C)-c1cc(Cl)ccc1C(=O)N1CCc3c(cccc3OCCCCCCOc3ncc(cn3)N(c3ccc(O)cc3)C2=O)C1 [Example 39, 10-Chloro-2-(4-hydroxyphenyl)-5,6-dimethyl-24,31-dioxa-2,6,15,33,36-pentaazahexacyclo[30.2.2.1˜4,7˜.1˜15,19˜.0˜8,13˜.0˜18,23˜]octatriaconta-1(34),4,7(38),8,10,12,18,20,22,32,35-undecuene-3,14-dione] | 0.0768 | 149 | – | –
Cc1c2cc(n1C)-c1cc(Cl)ccc1C(=O)N1Cc3ccccc3C(COc3ccc(C#N)cc3N(c3ccc(O)cc3)C2=O)C1 (stereo not drawn) [Example 13, 12-Chloro-5-(4-hydroxyphenyl)-8,9-dimethyl-6,15-dioxo-6,9,22,23-tetrahydro-5H,15H,17H-16,22-methano-7,10-(metheno)tribenzo[b,j,o][1,4,8,13]oxa-triazacyclooctadecine-3-carbonitrile] | 0.0332 | 239 | – | –
Cc1c2cc(n1C)-c1cc(Cl)ccc1C(=O)N1CCc3c(cccc3OCCCCn3cc(cn3)N(c3ccc(O)cc3)C2=O)C1 [Example 15, Chloro-14-(4-hydroxyphenyl)-10,11-dim ethyl-23-oxa-1,10,14,17,18-pentaazahexacyclo[26.3.1.1˜9,12˜.1˜15,18˜.0˜3,8˜.0˜24,29˜]tetratriaconta-3,5,7, 9(34),11,15(33),16,24,26,28-deca ene-2,13-dione] | 0.0037 | 11.6 | – | –
Cc1c2cc(n1C)-c1cc(Cl)ccc1C(=O)N1CCc3c(cccc3OCCCOc3cccc(c3)N(c3ccc(O)cc3)C2=O)C1 [Example 2, 6-Chloro-14-(4-hydroxyphenyl)-10,11-dimethyl-20,24-dioxa-1,10,14-triazahexacyclo[27.3.1.1˜9,12˜.1˜15,19˜.0˜3,8˜.0˜25,30˜]pentatriaconta-3,5,7,9(35),11,15(34),16,18,25,27,29-undecaene-2,13-dione] | 0.0044 | 179 | – | –
Cc1c2cc(n1C)-c1cc(Cl)ccc1C(=O)N1CCc3c(cccc3C1)CCCOc1cc(C#N)cc(c1)N(c1ccc(O)cc1)C2=O [Example 14, 6-Chloro-14-(4-hydroxyphenyl)-10,11-dimethyl-2,13-dioxo-20-oxa-1,10,14-triazahexacyclo[26.3.1.1˜9,12˜.1˜15,19˜.0˜3,8˜.0˜24,29˜]tetratriaconta-3,5,7,9(34),11,15(33),16,18,24,26,28-undecaene-17-carbonitrile] | 0.0147 | 14.6 | – | –
Cc1c2cc(n1C)-c1cc(Cl)ccc1C(=O)N1CCc3c(cccc3OCCc3c(cnn3C3CCOC3)N(c3ccc(O)cc3)C2=O)C1 (stereo not drawn) [Example 23, 11-Chloro-4-(4-hydroxyphenyl)-7,8-dimethyl-1-(tetrahydrofuran-3-yl)-1,4,16,17,23,24-hexahydro-14H-15,18-methano-6,9-(metheno)dibenzo[l,r]pyrazolo[3,4-d][1,6,10,15]oxatriazacyclononadecine-5,14(8H)-dione] | 0.0143 | 73.3 | – | –
Cc1c2cc(n1C)-c1cc(Cl)ccc1C(=O)N1CCc3c(cccc3OCCOc3c(cnn3C)N(c3ccc(O)cc3)C2=O)C1 [Example 21, 11-Chloro-4-(4-hydroxyphenyl)-1,7,8-trimethyl-1,4,16,17,23,24-hexahydro-14H-15,18-methano-6,9-(metheno)dibenzo[m,s]pyrazolo[3,4-e][1,4,7,11,16]dioxa-triazacycloeicosin-5,14(8H)-dione] | 0.0148 | 131 | – | –
